In article PMC10541198, “Specific quinone reductase 2 inhibitors reduce metabolic burden and reverse Alzheimer’s disease phenotype in mice” (The Journal of Clinical Investigation, 2023):
pEC50: −log10 of the molar value. “And” between values parts separate entries of the source, which are not always exact repeats. Equal entries are not always repeated.

Experiments:
Format in all cases: cell-based
[1] = target: T1, QR2 expressed in HEK293T (Homo sapiens, UniProt P16083); experiment: Cellular thermal shift assay (CETSA; Tagg curves and ITDRF); details: 73°C; for QR2 stabilization signal, ITDRF (replicates): log[Inhibitor]
T1 construct: endogenous in cells; host or cells: HEK293T
T1 sequence (P16083 1-231): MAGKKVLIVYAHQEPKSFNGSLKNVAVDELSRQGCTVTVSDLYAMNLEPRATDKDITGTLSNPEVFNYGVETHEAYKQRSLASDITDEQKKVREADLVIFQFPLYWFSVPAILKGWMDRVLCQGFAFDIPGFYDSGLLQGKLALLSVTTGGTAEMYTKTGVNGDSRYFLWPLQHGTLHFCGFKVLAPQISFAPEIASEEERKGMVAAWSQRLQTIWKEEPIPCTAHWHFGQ
Method: (§1) To establish direct target engagement and cell membrane permeability, a cellular thermal shift assay (CETSA) was carried out, using leading QR2is YB’s-537, 800, and 808. Following a 1 hour preincubation with 5 μM of the QR2is or vehicle, thermal aggregation curves (Taggs) of QR2 expressed in HEK293T were measured in increasing temperatures. All QR2is increased QR2 thermal stability compared with vehicle (Supplemental Figure 2A). Based on the Tagg curves we selected 73°C for isothermal dose-response fingerprint (IDTRF) experiments (Supplemental Figure 2B). The ITDRF allowed the relative quantification of the binding of each of the QR2is to QR2, measured as the EC50 (Figure 3A). […] We evaluated the safety of the QR2is using cell toxicity and viability assays. […] Cell viability was assessed by XTT assay in HEK239T cells, using a dose response, with 3- or 24-hour incubations of the leading QR2is. No sign of toxicity was seen (Figure 3C). Next, we wanted to assess if, similar to QR2 KO, QR2is can reduce cellular ROS in HCT116 cells and see whether any observable effect is occluded in QR2Δ cells. […] We then assessed WT HCT116 cells by immunoblot (Supplemental Figure 2, C and D), after being treated with YB-800 (2 μM) for 4 consecutive days.
(§2) H2DCFDA ROS assay was carried out according to established protocols, with some adjustment (Supplemental Methods) ([6]). Cell toxicity was measured via ATP depletion (CellTiter Glo, Promega) in THLE-2 cells (ATCC, CRL-2706), following 72 hours of exposure to the test compounds, and cell viability was assessed using XTT assay (Biological Industries) according to manufacturers protocols. CETSA was performed as previously described ([53]) with some modifications, using QR2 (Santa Cruz, sc-271665) and SOD1 (Santa Cruz, sc-17767) antibodies. SDS-PAGE and immunoblot imaging were carried out as previously described ([55]), using Tubulin (Sigma-Aldrich, SAB4500087), QR2 (Santa Cruz, sc-271665), NDUFA9 (AbCam, ab14713) and CD73 (Cell Signaling Technology, D7F9A) antibodies. […]
(§3) HEK293FT cells were cultured with penicillin- streptomycin antibiotics in Invitrogen DMEM (Thermo
(§4) Fisher Scientific) with 10% fetal bovine serum a nd L -glutamine, and grown to 80-90% confluence in 100
mm plates, while being passaged every 2–3 d. […]
Cellular The rm a l Shift Assay (CETSA)
The CETSA assay was performed as described(54) with some modifications. Bri efl y, HEK293T cel ls wer e
trypsinized (Biological Indust ri es), washed in PBS (Sigma-Aldrich) and then suspended in PBS containing
protease inhibitor cocktail (Roche). The suspended cells were then divided into two Eppendorf tubes and
were treated with either compound or DMSO (Sigma-Aldrich) for 1h at 37 °C with shaking. Following
treatment, each sample was divided into PCR tubes (100µL/tube) and subjected to a temperature gradient
(ranging fr om 63 to 80 °C) for 3 minutes. Cell lysates we r e obtained by 3- cycles of freeze- t ha w using li qui d
nitrogen and a thermal bl ock set to 25 °C. Samples were then centrifuged at 15,000rpm at 4 °C f or 20min a nd
were subsequently analyzed by Western Blot of QR2 (1:100, Santa Cruz; sc-271665). The isothermal
concentration response fingerprint (ITDRF) experiments were done using a constant temperature of 73 °C.
Band intensities were normalized to the highest concentration and SOD1 levels (1:200, Santa Cruz; sc -
(§5) 17767). Analysis of the results wer e done in accordance to Jafari et a l .( 63) us i ng GraphPad Pr i sm software.

[2] = tested on: THLE-2 cells; experiment: ATP depletion cell toxicity assay (CellTiter Glo), 72 h; details: for cell viability, Cell-Titer-Glo (replicates): THLE2, 72 hour, in % (unit assumed)
Method: H2DCFDA ROS assay was carried out according to established protocols, with some adjustment (Supplemental Methods) ([6]). Cell toxicity was measured via ATP depletion (CellTiter Glo, Promega) in THLE-2 cells (ATCC, CRL-2706), following 72 hours of exposure to the test compounds, and cell viability was assessed using XTT assay (Biological Industries) according to manufacturers protocols. CETSA was performed as previously described ([53]) with some modifications, using QR2 (Santa Cruz, sc-271665) and SOD1 (Santa Cruz, sc-17767) antibodies. SDS-PAGE and immunoblot imaging were carried out as previously described ([55]), using Tubulin (Sigma-Aldrich, SAB4500087), QR2 (Santa Cruz, sc-271665), NDUFA9 (AbCam, ab14713) and CD73 (Cell Signaling Technology, D7F9A) antibodies.
with a 100 µM as upper limit, for 72 h. […]
(§6) Cellular The rm a l Shift Assay (CETSA) […]
as §5

[3] = tested on: HEK293 cells; experiment: XTT cell viability assay; details: in % (unit assumed)
Method: as §1, §2, §3, §4
mm plates, while being passaged every 2–3 d. For the XTT assay (Biological Industries), cells were then
collected, centrifuged, and resuspended in fresh Minimum Essential Medium, and seeded at 50,000
cells/well in 96-well, poly- L-lysine-coated Nunc black, clear flat-bottomed plates (Thermo Fisher
Scientific). The next day, the cells were treated with increasing doses of QR2 inhibitors or vehicle f or 3 h,
and the XTT assay was then carried out as per the manufacturer’s instructions.
as §6, §5

Cc1ccc(-c2cn3cccc(C)c3n2)cc1S(=O)(=O)N1CCNCC1 [YB-537]
pEC50 ([1]; n = 3, read-out: EC50, isothermal dose-response of QR2 stabilization): 6.89 | QR2 stabilization signal, ITDRF (replicates) ([1]; M -5): 8037 and 7667 | QR2 stabilization signal, ITDRF (replicates) ([1]; M -5.6): 10469 and 7617 and 6857 | QR2 stabilization signal, ITDRF (replicates) ([1]; M -5.9): 10266 and 7463 and 6486 | QR2 stabilization signal, ITDRF (replicates) ([1]; M -6.2): 8878 and 6878 and 4582 | QR2 stabilization signal, ITDRF (replicates) ([1]; M -6.5): 6804 and 5633 | QR2 stabilization signal, ITDRF (replicates) ([1]; M -6.8): 3383 and 3296 and 2262 | QR2 stabilization signal, ITDRF (replicates) ([1]; M -7.1): 1653 and 1901 and 1028 | QR2 stabilization signal, ITDRF (replicates) ([1]; M -7.4): 762 and 749 and 458 | QR2 stabilization signal, ITDRF (replicates) ([1]; M -7.7): 410 and 416 | QR2 stabilization signal, ITDRF (replicates) ([1]; M -8): 212 and 226 and 182 | QR2 stabilization signal, ITDRF (replicates) ([1]; M -9): 110 and 98 and 105 | cell viability, Cell-Titer-Glo (replicates) ([2]; inhibitor 3.9e-7 M): 89.3 and 104.9 and 105.3 | cell viability, Cell-Titer-Glo (replicates) ([2]; inhibitor 7.8e-7 M): 93.6 and 99.6 and 103.9 | cell viability, Cell-Titer-Glo (replicates) ([2]; inhibitor 1.5625e-6 M): 96.4 and 109.9 and 90.1 | cell viability, Cell-Titer-Glo (replicates) ([2]; inhibitor 3.125e-6 M): 92.2 and 96.1 and 103.0 | cell viability, Cell-Titer-Glo (replicates) ([2]; inhibitor 6.25e-6 M): 89.6 and 101.5 and 85.3 | cell viability, Cell-Titer-Glo (replicates) ([2]; inhibitor 1.25e-5 M): 95.7 and 97.8 and 93.2 | cell viability, Cell-Titer-Glo (replicates) ([2]; inhibitor 2.5e-5 M): 93.9 and 92.0 and 88.2 | cell viability, Cell-Titer-Glo (replicates) ([2]; inhibitor 5e-5 M): 91.4 and 92.2 | cell viability, Cell-Titer-Glo (replicates) ([2]; inhibitor 0.0001 M): 81.5 and 82.7 and 80.4 | LD50, cell viability (Cell-Titer-Glo) ([2]; THLE2 cells, 72 hour incubation): > 100 µM | cell viability, XTT (replicates) ([3]; 3h, inhibitor 2e-8 M): 94.7 and 105.7 and 95.0 and 97.1 | cell viability, XTT (replicates) ([3]; 3h, inhibitor 2e-7 M): 97.9 and 102.5 and 95.0 and 99.0 | cell viability, XTT (replicates) ([3]; 3h, inhibitor 2e-6 M): 99.1 and 104.8 and 106.5 and 98.8 | cell viability, XTT (replicates) ([3]; 3h, inhibitor 2e-5 M): 94.7 and 101.0 and 104.9 and 96.7 | cell viability, XTT (replicates) ([3]; 24h, inhibitor 2e-8 M): 105.3 and 102.1 and 104.1 | cell viability, XTT (replicates) ([3]; 24h, inhibitor 2e-7 M): 107.4 and 101.8 and 105.2 | cell viability, XTT (replicates) ([3]; 24h, inhibitor 2e-6 M): 109.0 and 101.0 and 104.0 | cell viability, XTT (replicates) ([3]; 24h, inhibitor 2e-5 M): 106.0 and 97.3 and 109.2
